Results taken from patent publication US12049583B2, “Compound, composition for anisotropic dye films including the compound, anisotropic dye film, and optical element” (Mitsubishi Chemical Corporation, priority 2020, dated 2024).
Values belong to the compound of their own block, whether it stands above or below them.

Experiments:
[1] = Solubility of the dye in cyclopentanone (concentration of cyclopentanone-saturated solution by HPLC); type: physicochemical
Description: To 103 mg of cyclopentanone, 3 mg of the dye (IV-1) was added, and the resulting mixture was stirred at 80° C. for 5 minutes. The mixture was left to stand for 1 hour at room temperature. The resulting liquid mixture was filtered with a syringe equipped with a syringe filter (produced by Membrane Solutions Limited, PTFE13045, diameter: 0.45 μm). Hereby, a cyclopentanone-saturated solution of the dye (IV-1) was prepared. The above solution was diluted with 746 mg of tetrahydrofuran, and the concentration of the solution was determined using HPLC (L-2300 Series produced by Hitachi High-Technologies Corporation). A 0.1-mass % tetrahydrofuran solution of the dye (IV-1) was prepared, and a calibration curve was prepared at an absorption wavelength of 254 nm. The concentration of the cyclopentanone-saturated solution was measured using the above calibration curve.

[2] = Solubility of the dye in toluene (concentration of toluene-saturated solution by HPLC); type: physicochemical
Description: To 101 mg of toluene, 3 mg of the dye (II-1) was added, and the resulting mixture was stirred at 80° C. for 5 minutes. The mixture was left to stand for 1 hour at room temperature. The resulting liquid mixture was filtered with a syringe equipped with a syringe filter (produced by Membrane Solutions Limited, PTFE13045, diameter: 0.45 μm). Hereby, a toluene-saturated solution of the dye (II-1) was prepared. The above solution was diluted with 767 mg of tetrahydrofuran, and the concentration of the solution was determined using HPLC (L-2300 Series produced by Hitachi High-Technologies Corporation). A 0.1-mass % tetrahydrofuran solution of the dye (II-1) was prepared, and a calibration curve was prepared at an absorption wavelength of 254 nm. Table 1 lists the results of measurement of the concentration of the toluene-saturated solution using the above calibration curve.

[3] = cyclopentanone-saturated solution, stirred at 80° C. 5 min, left 1 hour at room temperature, filtered, HPLC 254 nm
[4] = toluene-saturated solution, stirred at 80° C. 5 min, left 1 hour at room temperature, filtered, HPLC 254 nm

Solubility of the dye in cyclopentanone [1, 3]: 2.7 mass %
SMILES: CCN(CC)c1ccc(/N=N/c2ccc(/N=N/c3sc(C)cc3C#N)cc2)cc1 [IV-3]

Solubility of the dye in cyclopentanone [1, 3]: 1.8 mass %
SMILES: CCN(CC)c1ccc(/N=N/c2ccc(/N=N/c3cc(C)ns3)cc2)cc1 [IV-4]

Solubility of the dye in cyclopentanone [1, 3]: 2.2 mass %
SMILES: CCCCSc1nnc(/N=N/c2ccc(/N=N/c3ccc(N(CC)CC)cc3)cc2)s1 [IV-2]

The next lines start with the compound.

SMILES: CCN(CC)c1ccc(/N=N/c2nc3sc(/N=N/c4ccc(OCCC(C)CC(C)(C)C)cc4)cc3s2)cc1 (centres unmarked) [II-3]
Solubility of the dye in cyclopentanone [1, 3]: 0.3 mass %
Solubility of the dye in cyclopentanone ([1]; measured as for dye (IV-1), detection absorption wavelength 254 nm): 0.3%

SMILES: CCN(CC)c1ccc(/N=N/c2ccc(/N=N/c3nc4sc(CCC(C)CC(C)(C)C)cc4s3)cc2)cc1 (centres unmarked) [II-1]
Solubility of the dye in toluene [2, 4]: 0.5 mass %

SMILES: CCN(CC)c1ccc(/N=N/c2ccc(/N=N/c3nc4sc(CCC(C)C)cc4s3)cc2)cc1 [II-2]
Solubility of the dye in toluene ([2]; measured as for dye (II-1), detection absorption wavelength 254 nm): 0.7%
Solubility of the dye in toluene [2, 4]: 0.7 mass %
